`O=C(Oc1ccccc1Cl)c1ncn2c1[C@@H]1CCCN1C(=O)c1c(Cl)cccc1-2` gave a melting point of 214 to 215 °C. Compound `CCc1c(Oc2cc(C)cc(C)c2)[nH]c(=O)[nH]c1=O` has a melting point of 91 to 92 °C. Work on `CCOC(=O)C(=O)Nc1sc(-c2ccccc2)cc1[N+](=O)[O-]` yielded a melting point of 139 to 144 °C. Work on `CC[C@]1(C(=O)NCC=Cc2ccccc2F)[C@H](C)C1(Cl)Cl` (relative stereo) yielded a melting point of 103 to 105 °C. In the case of `O=CC(Nc1ccc2c(c1)OCC(=O)N2)N1CCC(Cc2ccccc2)CC1` (stereo not given), the melting point is reported as 172 to 175 °C. `COC(=O)c1c(Cc2ccc(S(=O)(=O)N3CCN(C)CC3)cc2)c(=O)c2ccc(Cl)cc2n1-c1ccccc1` gave a melting point of 223 to 227 °C. In the case of `COc1cc(OC)c2c(c1)Oc1cc(Br)ccc1CC2=O`, the melting point is reported as 95 to 103 °C. `CN(C)CCOc1ccc2nc(C#N)nc(NC3CCCC3)c2c1` showed a melting point of 158 to 160 °C. Work on `CN(C)Cc1ccc(CSCCN=CNS(=O)(=O)c2ccccc2)o1` yielded a melting point of 83 to 85 °C. Work on `CC(C)CNc1nc(-c2ccccc2)c(Cl)n2c(Br)cnc12` yielded a melting point of 138 °C. For `C#Cc1c2ccccc2nc2c(OC)ccc(OC)c12`, the melting point was 155 to 157 °C. `N#Cc1c(Cl)cccc1SSc1ccc([N+](=O)[O-])cc1C(Cl)(Cl)Cl` gave a melting point of 137 °C. With `N#Cc1nc(F)c(F)c(N)c1Cl` the melting point was 190 to 192 °C. For `Cc1ccc(CN2CCN(CCCOc3ccc4[nH]c(=O)cc(C)c4c3)CC2)cc1`, the melting point was 162 to 163 °C. `O=C(O)c1cccc(N(C(c2ccccc2)c2ccccc2)n2cc(C3c4ccccc4C=Cc4ccccc43)c(=S)[nH]c2=O)c1` showed a melting point of 210 °C. In the case of `COc1ccc(/C=C/C(=O)Nc2ccccc2C(=O)OCC(=O)O)cc1OC`, the melting point is reported as 206 to 209 °C. With `O=C(O)CCCc1cc2nc(Cl)ccc2n1S(=O)(=O)c1ccc(-c2cccnc2)cc1` the melting point was 141 °C. Compound `Clc1ccc2c(c1)C=C(n1ccnc1)CO2` has a melting point of 118 to 120 °C. For `O=C(CCl)Cc1nc2ccccc2c(=O)n1-c1ccc(Cl)cc1`, the melting point was > 275 °C. For `O=C(NC1CN2CCC1CC2)c1ccc2[nH]ccc2c1` (stereo not given), the melting point was 293 to 295 °C. Work on `CCN(c1ccc(N2CCN(c3ccc(OC)cc3)CC2)cc1)c1nnc(C)s1` yielded a melting point of 187 °C. With `Cc1ccc(C(=C/C=C/C(=O)O)c2ccc(C)cc2)cc1` the melting point was 224 to 226 °C. Compound `Cc1cccc(NC(=O)Nc2ccc(-c3c(C(N)=O)[nH]c4ccccc34)cc2)c1` has a melting point of 140 to 142 °C. `O=[N+]([O-])c1ccc(OCC#CC#CCOc2ccc([N+](=O)[O-])cc2[N+](=O)[O-])cc1` showed a melting point of 125 °C. Work on `Oc1cccc(Nc2n[nH]c3ncnc(Nc4cccc(Cl)c4)c23)c1` yielded a melting point of 265 to 266 °C. `CS(=O)(=O)c1ccc(-c2cc(C(F)(F)F)nn2-c2ccc(OC(F)(F)F)cc2)cc1F` showed a melting point of 110 to 112 °C. In the case of `CC(C)(C)C(NC(=O)c1ccc(Cl)cc1)NC(=N[N+](=O)[O-])Nc1cccnc1` (stereo not given), the melting point is reported as 203 to 204 °C. `O=C(O)CN1C(=O)C(NC(CCc2ccccc2)C(=O)O)CCc2ccccc21` (stereo not given) showed a melting point of 256 to 259 °C. With `O=C1COc2cc3[nH]c(C(=O)N4CCC(Cc5ccccc5)CC4)cc3cc2N1` the melting point was 225 to 231 °C. Work on `CCOC(=O)c1cc2c(o1)CNCC2(O)c1ccc(C)cc1` (stereo not given) yielded a melting point of 194 to 196 °C. With `NS(=O)(=O)c1ccc(-c2cnn(CC(F)(F)F)c(=O)c2-c2ccc(Cl)cc2)cc1` the melting point was 154 to 156 °C. Compound `CSc1ccc(C2=C(c3ccccc3)C(=O)OC23CCCC3)cc1` has a melting point of 147 to 148 °C. In the case of `O=C(Nc1ccc(Oc2ccnc(NCC3CC3)n2)c2ccccc12)c1cc(F)cc(N2CCOCC2)c1`, the melting point is reported as 116 to 117 °C. For `CC12CCC3C(CC4OC45CC(O)CCC35C)C1CCC2=O` (stereo not given), the melting point was 197 to 200 °C. `Nc1ccc2nccnc2c1Br` gave a melting point of 155 to 156 °C. `N#Cc1cccnc1N1CCN(CC(=O)Nc2cc(F)cc(C(F)(F)F)c2)CC1` showed a melting point of 108 to 110 °C. For `CS(=O)(=O)NCCCn1cnc(-c2ccc(F)cc2)c1-c1ccncc1`, the melting point was 186 to 187 °C. In the case of `O=C(O)c1ccc(CCCOCCCCCCBr)cc1`, the melting point is reported as 70 to 71 °C. For `CC(C)n1nc(-c2cnc(N)nc2-c2ccccc2C(F)(F)F)ccc1=O`, the melting point was 160 to 161 °C. Compound `O=C(O)COc1c(Br)cc(-c2cccc3sc4ccccc4c23)cc1Br` has a melting point of 212 to 213 °C. In the case of `Cc1n[nH]c(/C=C/c2ccccc2)n1`, the melting point is reported as 131 to 134 °C. In the case of `CCOC(=O)CN(C)C=C(Cl)C#N`, the melting point is reported as 57 °C. `COc1ccc(C(=O)CCC(=O)c2ccc(OC)c(OC)c2)cc1OC` gave a melting point of 181 to 182 °C. Work on `CCOC(=O)CC(NCCCNC(C)(C)C)C(=O)O` (stereo not given) yielded a melting point of 174 to 175 °C. For `CC(C)(C)OC(=O)NC1Cc2cccc(c2)CC(C(=O)O)NC(=O)CNC1=O` (stereo not given), the melting point was > 250 °C. `CCC/C=C/S(=O)(=O)NC(=O)c1ccc2nc(C)n(Cc3ccc(N(C)C(=O)OCC)cc3Cl)c2n1` showed a melting point of 165 to 166 °C. For `O=C(c1ccc(Oc2ccccc2)c([N+](=O)[O-])c1)c1ccc(Oc2ccccc2)c([N+](=O)[O-])c1`, the melting point was 111 to 113 °C. Compound `CCCCc1c(Cc2ccc(-c3ccccc3C(=O)O)cc2)c(=O)nc2n1CC(=O)N2` has a melting point of 220 to 222 °C. Compound `N#Cc1ccc(-c2ccc(C#N)cc2-c2nc3ccccc3[nH]2)c(-c2nc3ccccc3[nH]2)c1` has a melting point of 347 to 349 °C. `CC(C)(C)c1ccc(/C=C/CO[Si](C)(C)C(C)(C)C)cc1[N+](=O)[O-]` gave a melting point of 33 to 34 °C. In the case of `CC(Oc1ccc(Oc2ccc(Oc3ccc(OC(C)C(=O)O)cc3)cc2)cc1)C(=O)O` (stereo not given), the melting point is reported as 135 to 136 °C. Compound `O=c1oc2c(c(O)c1C(c1ccccc1)C1CC1)CCCCCCCCCC2` (stereo not given) has a melting point of 97.8 to 99 °C. With `COc1ccc2ccc(C(N)=O)c(OC)c2c1` the melting point was 134 to 136 °C. In the case of `O=[N+]([O-])c1ccc2c(c1)CCNCC2`, the melting point is reported as 53 to 56 °C. In the case of `CC(C)Cn1cnc2c(N)nc3cccnc3c21`, the melting point is reported as 230 to 232 °C. For `COc1cc(N)c(Cl)cc1C(=O)N[C@H]1CCN(Cc2cccnc2)C[C@H]1OC` (relative stereo), the melting point was 189 °C. In the case of `COc1ccc(CS[C@H]2C[C@@H](C(=O)N3CCN(CCO)CC3)N(C(=O)OCc3ccc([N+](=O)[O-])cc3)C2)cc1`, the melting point is reported as 140 to 141 °C. For `O=C(c1ccccc1)c1nc2cnc3ccc(F)cc3c2[nH]1`, the melting point was 255 to 256 °C. Work on `CS(=O)(=O)c1cccc(Cc2cc3cccc(-c4cccc(C(=O)NCC(N)=O)c4)c3s2)c1` yielded a melting point of 189 to 193 °C. Work on `CC1(C)OC(C=Cc2ccoc2)=CC1=O` yielded a melting point of 79 to 80 °C. In the case of `Cn1nnnc1SCc1ccccc1`, the melting point is reported as 48.5 to 49.5 °C. `CN(C)CCCCCCc1ccc(NC=NO)cc1` gave a melting point of 96 to 97 °C. For `O=C(O)c1ccc2nc3sc(-c4ccccc4)cc3c(=O)n2c1`, the melting point was 387 to 392 °C. `NC(=O)NN(C(=O)c1ccccc1)c1ccccn1` showed a melting point of 206 °C. For `O=C1OC(CO)CN1c1ccccc1` (stereo not given), the melting point was 122 to 124 °C. With `CC(COc1ccc(CC2SC(=O)NC2=O)cc1)N1CC(Cc2ccccc2)OC1=O` (stereo not given) the melting point was 60 to 70 °C. Work on `CS(=O)(=O)c1ccc(-c2cnc(N(Cc3ccc(C(F)(F)P(=O)(O)O)c(Cl)c3)c3ccc(Cl)c(Cl)c3)o2)cc1` yielded a melting point of 141 to 143 °C. With `CCN1CC(=O)Nc2cc(Nc3ncc(Cl)c(Nc4ccccc4S(=O)(=O)C(C)C)n3)c(OC)cc2C1` the melting point was 175 °C. Compound `CCOc1ccnc(F)c1N` has a melting point of 76 to 77 °C. Compound `COc1ccc2c3c(c(=O)oc2c1)CN(Cc1ccc(Cl)c(Cl)c1)CC3` has a melting point of 144 to 146 °C.

Reference: a melting point compilation (Tetko et al.; mined from patent text by program, amines drawn as free bases though some values may be those of a salt)
